Results reported in US20220160779A1, “COMPOSITION FOR PROMOTING CARTILAGE TISSUE REGENERATION” (National University Corporation Tokyo Medical and Dental …, priority 2019, published 2022).

What was measured:
synovial MSCs [1] = experiment: Proliferation assay of synovial MSCs with recombinant protein (MTT assay); type: cell-based, human; conditions: for effect of inhibitor on pro-proliferative activity of Activin A / cell count (MTT assay): 0.5% FBS + rh Activin A + inhibitor, FIG. 5E; for proliferation activation of MSCs (MTT assay): recombinant protein added to normal growth medium (10% FBS) up to 100 times the ED50, FIG. 3C
Procedure: Primary human synovial cells were isolated from the synovial tissues obtained from patients who underwent total knee arthroplasty (TKA), as described in Sekiya I. et al, Clin Orthop Relat Res, 2015, 473(7), pp. 2316 to 2326. That is, first, 0.5 to 1 mg of synovium obtained by incising the suprapatellar bursa was subjected to collagenase D treatment (Sigma, MO, USA, 3 hours at 37° C.) to disperse nucleated cells. Debris was removed by passing the cell dispersion through a 70 μm nylon mesh. Nucleated cells were seeded in a 15 cm dish at 5.7×10^2 cells/cm^2 and maintained and cultured in MEM-alpha medium supplemented with 10% FBS and antibiotics (Gibco, MA, USA) for 14 days. The cells were then separated from the dish in TripLE solution (Gibco) and seeded twice more in a new dish to obtain a sufficient cell count to be used in the experiments. Note that in all experiments, cells within 6 passages were used.
To evaluate the pro-proliferative activity of recombinant proteins (IL6, IL8, IL10, and Activin A), MTT assays were performed (see FIGS. 3C and 5C-E). Synovial MSCs were seeded to 1×10^3 cells/well in 96-well plates and cultured in 0.2 mL of normal growth medium 1 day before being subjected to recombinant protein treatment. On the following day, the medium was replaced with a fresh one (normal growth medium or medium with a reduced FBS concentration of 0.5% and recombinant protein added (10 times the concentration of ED50 or 100 times the concentration of ED50)). MTT assays were performed at days 0, 1, 3, 5, and 7 according to the method described in Denizot F. et al., J Immunol Methods, 1986, 89(2), pp. 271 to 277.
In addition, the present inventors tried to clarify the molecular mechanism of MSC proliferative activity by Activin A. It has been reported that the ERK and PI3K signal transduction pathways are activated for MSC proliferation (see Uomizu, M. et al, J Med Dent Sci., 2018, vol. 65, pp. 73 to 82). With the above in mind, Activin A (rh Activin A) was applied to synovial MSCs in the presence of PI3K-PKB/Akt and Erk1/Erk2, a specific inhibitor for each of these signal transduction pathways, and the cell count was measured by MTT assay.

C57BL/6J mice = experiment: Medial meniscus anterior 1/2 resection model; type: in vivo, mouse; conditions: intra-articular on day 7; 10 days after resection; FIG. 7A
Text: Twenty male C57BL/6J mice (8 weeks old, weight: about 25 g) were used for this study (5 mice in each group. ORIENTAL YEAST Co., Ltd. Tokyo, Japan). After anesthesia by isoflurane inhalation, a straight incision was made in the left anterior knee, and the anterior central side of the joint capsule was cut. The patellar tendon was then dislocated laterally to expose the anterior corner of the medial meniscus (see Hiyama K. et al, J Orthop Res., 2017, 35(9), pp. 1958 to 1965). The anterior corner of the meniscus was cut and dislocated anteriorly using forceps. The medial meniscus was cut perpendicularly at the medial collateral ligament, and the anterior portion of the medial meniscus was resected in a microscopic operation using a surgical microscope. The skin was closed in layers with non-absorbable sutures. Note that the right knee was subjected to sham surgery. In addition, the mice were kept under a 12-hour light/dark cycle with free movement, free feeding, and drinking water.
Recombinant human Activin A (42 ng/6 μL in PBS) and/or rh PDGF-AA (174 ng/6 μL in PBS) was injected intra-articularly on postoperative day 7 (see Hoshino T. et al., BMC Musculoskelet Disord., 2018, 19(1): 291). […]
Tissue samples were fixed in 4% paraformaldehyde for 3 to 4 days and subjected to decalcification in 20% ethylenediaminetetraacetic acid (EDTA) solution for 21 days. Then, they were embedded in paraffin wax. The specimens were then cut to a 5 μm thickness in the sagittal plane and stained with safranin O/Fast Green or hematoxylin/eosin (H&E) to histologically evaluate meniscus regeneration.
A modified Pauli's score system was used to histologically quantify meniscus regeneration (see Hiyama K. et al, J Orthop Res. 2017, 35(9), pp. 1958 to 1965). Histological evaluation was performed by two investigators in a blind manner.
Type I and II collagen immunostaining was performed as described in Tsuji K. et al, Cell Transplant., 2017, 26(6), pp. 1089 to 1102. That is, sections were subjected to deparaffinization with xylene (Wako Pure Chemical Industries, Tokyo, Japan), rehydrated stepwise with alcohol, and saturated with phosphate buffered saline (PBS). For type II collagen staining, the samples were pretreated with 50 mM Tris-HCl buffer (Wako Pure Chemical Industries) containing 0.4 mg/ml Proteinase K (Dako, Agilent Technologies, Santa Clara, Calif., USA) for 10 min. For type I collagen staining, no digestion with Proteinase K was performed.
Next, the cells were treated with methanol containing 0.3% hydrogen peroxide for 30 minutes to suppress the activity of endogenous peroxidase. As primary antibodies, anti-type I collagen antibody (1:200 dilution; Abcam cat. #ab34712, Cambridge, UK) or anti-type II collagen antibody (1:1000 dilution; Abcam […], Cambridge, UK) were added to the sections and incubated at 4° C. overnight. Then, the sections were rinsed with 0.1% PBS-Triton X-100 (MP Biomedicals Inc., Solon, Ohio, USA) and incubated with secondary antibodies diluted 1:200 [Biotinylated goat-derived anti-rabbit immunoglobulin G (IgG), Vector Laboratories, Burlingame, Calif., USA]. Then, the sections were rinsed, the signals were visualized with Vectastain ABC Reagent (Vector Laboratories), and diaminobenzidine staining (DAB, Vector Laboratories) was applied. In addition, the sections were contrast stained with hematoxylin (Muto Pure Chemicals, Tokyo, Japan).

[2] = test system: rat model of total articular cartilage loss; experiment: Full thickness articular cartilage defect model; type: in vivo; conditions: 4 weeks after the defect, FIG. 8
Procedure: Next, in order to verify the regeneration of damaged articular cartilage and the suppression of degenerative degeneration, a model of full thickness articular cartilage defect was prepared to examine the effects of rh Activin A administration. Specifically, a 1.4 mmφ total articular cartilage loss was prepared in the femoral intercondylar region using an airtome, and 180 ng of Activin A (rh Activin A) was injected intra-articularly 1 week later.

synovial MSCs [3] = experiment: In-vitro differentiation assay of MSCs (cartilage, bone, adipocytes); type: cell-based, human; conditions: added to chondrogenic differentiation medium, pellet culture 2 weeks; FIG. 6C
Procedure: In-vitro differentiation assays were performed according to the method described in Colter D C. et al, Proc Natl Acad Sci USA, 2001, 98, pp. 7841 to 7845.
To form chondrogenic spheroids, 2.5×10^5 cells were transferred into 15 mL polypropylene tubes (BD Biosciences) and subjected to centrifugation at 450×g for 10 minutes. Then, the cell pellets were cultured in chondrogenic medium containing 1000 ng/mL rhBMP-2 (Infuse Bone Graft; Medtronic, TN, USA), 10 ng/mL […], and 100 nM dexamethasone (Sigma-Aldrich, MO, USA) for 14 days.
For calcification, cells were cultured in normal growth medium supplemented with 1 nM dexamethasone, 20 mM β-glycerophosphate, and 50 μg/mL ascorbic acid-2-phosphate (Sigma-Aldrich) for 21 days. Calcified nodule formation was visualized by alizarin red staining (Sigma-Aldrich).
For adipogenesis, the cells were cultured for 21 days in MEM-alpha supplemented with 10% FBS, 100 nM dexamethasone (Sigma-Aldrich), 0.5 mM IBMX (isobutyl-1-methylxanthine; Sigma-Aldrich), and 50 μM indomethacin (Wako, Tokyo, Japan). The adipogenic cultures were immobilized and stained with Oil Red O solution (Sigma-Aldrich).

[4] = test system: rat meniscus damage model; conditions: intra-articular administration; cited from earlier work

Molecule | effect of inhibitor on pro-proliferative activity of Activin A / cell count (MTT assay) (synovial MSCs [1]) | proliferation activation of MSCs (MTT assay) (synovial MSCs [1]) | also measured
O=c1[nH]c2ccccc2n1C1CCN(Cc2ccc(-c3nc4cc5[nH]cnc5cc4nc3-c3ccccc3)cc2)CC1 [Akt1/2, reference compound] | completely eliminated |  | 
COc1ccc(-c2ccc3c(N4CCOCC4)nc(N4C[C@@H](C)O[C@@H](C)C4)nc3n2)cc1CO [KU0063794, reference compound] | completely eliminated |  | 
COc1cccc(-c2cc(=O)c3ccccc3o2)c1N [PD98059, reference compound] | further reduced |  | 
IL6: recombinant human IL6 protein |  | no proliferation activation of MSCs was observed | 
IL8: recombinant human IL8 protein |  | no proliferation activation of MSCs was observed | 
PDGF |  |  | vascular invasion in the regenerated region (C57BL/6J mice): observed; chondrogenic differentiation of the formed tissue [2]: no significant promotion effect; formation of fibrocartilage-like tissue in the articular cartilage defect site ([2]; intra-articular 1 week after defect (rh Activin A 180 ng/knee, rrPDGF-AA 900 ng/knee), vs PBS): promote the formation of fibrocartilage-like tissue; formation of chondrocyte aggregates (wet weight) (synovial MSCs [3]): effect of promoting the formation of chondrocyte aggregates
FGF18: FGF18 given by intra-articular administration (protein, UniProt O76093 28-207, looked up) Fibroblast growth factor 18: EENVDFRIHVENQTRARDDVSRKQLRLYQLYSRTSGKHIQVLGRRISARGEDGDKYAQLLVETDTFGSQVRIKGKETEFYLCMNRKGKLVGKPDGTSKECVFIEKVLENNYTALMSAKYSGWYVGFTKKGRPRKGPKTRENQQDVHFMKRYPKGQPELQKPFKYTTVTKRSRRIRPTHPA |  |  | articular cartilage degeneration and cartilage thickness at the tibial plateau [4]: suppress articular cartilage degeneration and increase cartilage thickness at the tibial plateau
IL10: recombinant IL10 protein (protein, UniProt P22301 19-178, looked up) Interleukin-10: SPGQGTQSENSCTHFPGNLPNMLRDLRDAFSRVKTFFQMKDQLDNLLLKESLLEDFKGYLGCQALSEMIQFYLEEVMPQAENQDPDIKAHVNSLGENLKTLRLRLRRCHRFLPCENKSKAVEQVKNAFNKLQEKGIYKAMSEFDIFINYIEAYMTMKIRN |  | no proliferation activation of MSCs was observed | 
